Experiment [1] deals with ECHCG. Briefly: Pre-emergence herbicidal action against ECHCG. The format is in vivo, Echinochloa crus-galli. In short, it runs like this: (§1)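 Seeds sown in sandy loam, soil-covered; compound sprayed on soil surface pre-emergence. Application: WP/EC, 600–800 l/ha, 0.2% wetting agent. Readout: visual % damage at 3 weeks.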
Experiment [2] concerns ECHCG. The experiment in a line: Post-emergence herbicidal action against ECHCG. Type of experiment: in vivo, Echinochloa crus-galli. In short, it runs like this:
(§2)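 Sandy loam, greenhouse; treatment 2–3 weeks after sowing, one-leaf stage. Aqueous suspension or emulsion from WP/EC sprayed on foliage (600–800 l/ha, 0.2% wetting agent). Readout: visual % action, ~3 weeks.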

Experiment [3] has as its system SETVI. The experiment in a line: Pre-emergence herbicidal action against SETVI. The settings on record: dosage 80 g/ha. Type of experiment: in vivo, Setaria viridis. In short, it runs like this:
as §1

Experiment [4] has as its system DIGSA. The experiment in a line: Pre-emergence herbicidal action against DIGSA. Type of experiment: in vivo, Digitaria sanguinalis. In short, it runs like this:
as §1

The test system of experiment [5] is AMARE. The experiment in a line: Pre-emergence herbicidal action against AMARE. Type of experiment: in vivo, Amaranthus retroflexus. In short, it runs like this:
as §1

In experiment [6] the test system is VIOTR. Briefly: Pre-emergence herbicidal action against VIOTR. The format is in vivo, Viola tricolor. The conditions noted are these: dosage 80 g/ha. Summed up: as §1
Experiment [7] relates to MATIN. The experiment in a line: Pre-emergence herbicidal action against MATIN. Type of experiment: in vivo, Matricaria inodora. In short, it runs like this: as §1
The test system of experiment [8] is ABUTH. The experiment in a line: Pre-emergence herbicidal action against ABUTH. The format is in vivo, Abutilon theophrasti. The conditions noted are these: for Pre-emergence action against ABUTH (herbicidal activity): 80 g/ha, scored visually after 3 weeks vs untreated controls (100% = plants have died, 0% = like control plants). In short, it runs like this:
as §1

The test system of experiment [9] is ABUTH. The experiment in a line: Post-emergence herbicidal action against ABUTH. Type of experiment: in vivo, Abutilon theophrasti. The conditions noted are these: dosage 20 g/ha, visual assessment about 3 weeks after treatment vs untreated controls. In short, it runs like this: as §2
Experiment [10] concerns AMARE. The experiment in a line: Post-emergence herbicidal action against AMARE. Type of experiment: in vivo, Amaranthus retroflexus. The conditions noted are these: 20 g/ha, visual assessment about 3 weeks after treatment, 100% = plants have died, 0% = like control plants. Summed up:
as §2

Experiment [11] concerns SETVI. The experiment in a line: Post-emergence herbicidal action against SETVI. Type of experiment: in vivo, Setaria viridis. The settings on record: dosage 20 g/ha. In short, it runs like this: as §2
A further experiment deals with POLCO. Briefly: Pre-emergence herbicidal action against POLCO. Type of experiment: in vivo, Polygonum convolvulus. The settings on record: dosage 80 g/ha. An excerpt: Seeds of monocotyledonous and dicotyledonous weed plants and crop plants are laid out in sandy loam soil in wood-fiber pots and covered with soil. The compounds of the invention, formulated in the form of wettable powders (WP) or as emulsion concentrates (EC), are then applied to the surface of the covering soil in the form of an aqueous suspension or emulsion at a water application rate equivalent to 600 to 800 l/ha, with addition of 0.2% wetting agent. After the treatment, the pots are placed in a greenhouse and kept under good growth conditions for the trial plants. The damage to the test plants is scored visually after a test period of 3 weeks by comparison with untreated controls (herbicidal activity in percent (%): 100% activity=the plants have died, 0% activity=like control plants). […] The tables below illustrate, in an illustrative manner, the post-emergence herbicidal action of the compounds of the invention, the herbicidal activity being stated in percent.

Experiment [12] relates to VIOTR. The experiment in a line: Post-emergence herbicidal action against VIOTR. The format is in vivo, Viola tricolor. Summed up:
as §2

Experiment [13] has as its system PHBPU. The experiment in a line: Pre-emergence herbicidal action against PHBPU. Type of experiment: in vivo, Pharbitis purpurea. The conditions noted are these: dosage 80 g/ha. Summed up:
as §1

Experiment [14] deals with ALOMY. Briefly: Post-emergence herbicidal action against ALOMY. Type of experiment: in vivo, Alopecurus myosuroides. The conditions noted are these: dosage 20 g/ha, visual assessment about 3 weeks after treatment vs untreated controls. In short, it runs like this:
as §2

For experiment [15], the system named is ALOMY. The experiment in a line: Pre-emergence herbicidal action against ALOMY. The format is in vivo, Alopecurus myosuroides. The settings on record: 80 g/ha, pre-emergence, scored visually after 3 weeks vs untreated controls (100% = plants have died, 0% = like control plants). In short, it runs like this:
as §1

Experiment [16] relates to MATIN. Briefly: Post-emergence herbicidal action against MATIN. The format is in vivo, Matricaria inodora. Summed up:
as §2

The test system of experiment [17] is VERPE. Briefly: Post-emergence herbicidal action against VERPE. The format is in vivo, Veronica persica. Summed up:
as §2

In experiment [18] the test system is VERPE. The experiment in a line: Pre-emergence herbicidal action against VERPE. The format is in vivo, Veronica persica. The conditions noted are these: dosage 80 g/ha. In short, it runs like this: as §1
In experiment [19] the test system is DIGSA. The experiment in a line: Post-emergence herbicidal action against DIGSA. Type of experiment: in vivo, Digitaria sanguinalis. The conditions noted are these: 20 g/ha. In short, it runs like this:
as §2

For experiment [20], the system named is PHBPU. The experiment in a line: Post-emergence herbicidal action against PHBPU. Type of experiment: in vivo, Pharbitis purpurea. The settings on record: dosage 20 g/ha. Summed up: as §2
For a further experiment, the system named is AVEFA. Briefly: Pre-emergence herbicidal action against AVEFA. The format is in vivo, Avena fatua. In short, it runs like this:
as §1

Where [21] appears, read: 20 g/ha, scored visually after 3 weeks vs untreated controls, 100% = plants have died, 0% = like control plants.
[22] abbreviates: 80 g/ha, scored visually after 3 weeks vs untreated controls (100% = plants have died, 0% = like control plants).

`Cc1nnc(NC(=O)c2ccc(C(F)F)c(C(=O)NC3CC3)c2Br)o1` [Example 6-166]: in the experiment on ECHCG [1] (80 g/ha), the “Pre-emergence action against ECHCG in %” value came out at 80%. For the same compound, the “Post-emergence action against ECHCG in %” value is recorded as 80% in the experiment with ECHCG [2] (dosage 5 g/ha) and 90% in the experiment with ECHCG [2] (dosage 20 g/ha). For the same compound, in the experiment with SETVI [3], the “Pre-emergence action against SETVI in %” value is on record as 100%. Besides, the “Pre-emergence action against DIGSA in %” value in the experiment on DIGSA [4] (dosage 20 g/ha) was determined as 80%; with DIGSA [4] (dosage 80 g/ha), 100%. Moreover, the “Pre-emergence action against AMARE in %” value was found to be 90% in the experiment with AMARE [5] (setting [21]) and 100% in the experiment with AMARE [5] (setting [22]). The “Pre-emergence action against VIOTR in %” value in the experiment with VIOTR [6] is reported as 100%. Besides, the “Pre-emergence action against MATIN in %” value in the experiment on MATIN [7] (dosage 80 g/ha) came out at 100%. For the same compound, in the experiment with ABUTH [8], the “Pre-emergence action against ABUTH (herbicidal activity)” value is listed as 100%. For the same compound, the “Post-emergence action against ABUTH in %” value in the experiment with ABUTH [9] was 80%. Further, in the experiment with AMARE [10], the “Post-emergence action at 20 g/ha against AMARE in %” value is listed as 90%. In addition, the “Post-emergence action against SETVI in %” value with SETVI [11] stood at 100%. In the experiment with POLCO, the “Pre-emergence action against POLCO in %” value is 80%.
Regarding `Cc1nnc(NC(=O)c2ccc(C(F)F)c(C(=O)NCC(F)F)c2Br)o1` [Example 6-169], in the experiment with ECHCG [1] (80 g/ha), the “Pre-emergence action against ECHCG in %” value was found to be 90%. The “Post-emergence action against ECHCG in %” value was determined as 80% with ECHCG [2] (dosage 5 g/ha) and 90% in the experiment on ECHCG [2] (dosage 20 g/ha). In addition, in the experiment with SETVI [3], the “Pre-emergence action against SETVI in %” value was found to be 100%. Also, the “Pre-emergence action against DIGSA in %” value in the experiment on DIGSA [4] (dosage 80 g/ha) is on record as 90%. Also, the “Pre-emergence action against AMARE in %” value is listed as 90% in the experiment with AMARE [5] (setting [21]) and 100% in the experiment on AMARE [5] (setting [22]). For the same compound, in the experiment on MATIN [7] (dosage 80 g/ha), the “Pre-emergence action against MATIN in %” value turned out to be 80%. Further, in the experiment on ABUTH [8], the “Pre-emergence action against ABUTH (herbicidal activity)” value worked out at 90%. The “Post-emergence action at 20 g/ha against AMARE in %” value in the experiment on AMARE [10] amounted to 90%. In addition, in the experiment with SETVI [11], the “Post-emergence action against SETVI in %” value came out at 90%. For the same compound, the “Pre-emergence action against POLCO in %” value with POLCO is reported as 100%.
Regarding `CCn1nnnc1NC(=O)c1ccc(C(F)(F)F)c(C(=O)NCCSC)c1C` [Example 2-35], in the experiment on AMARE [5] (setting [22]), the “Pre-emergence action against AMARE in %” value came out at 90%. The “Pre-emergence action against MATIN in %” value in the experiment on MATIN [7] (dosage 80 g/ha) came to 80%. For the same compound, the “Pre-emergence action against POLCO in %” value in the experiment on POLCO is 80%.
Turning to `CC(NC(=O)c1c(C(F)(F)F)ccc(C(=O)Nc2nnnn2C)c1Cl)C1CC1` (stereo not shown) [Example 1-135], the entries for the “Post-emergence action against VIOTR in %” value in the experiment with VIOTR [12] (5 g/ha) and in the experiment with VIOTR [12] (20 g/ha) were 80% and 90%, respectively. Besides, the “Pre-emergence action against PHBPU in %” value with PHBPU [13] turned out to be 80%. The “Post-emergence action against ALOMY in %” value with ALOMY [14] stood at 90%. In addition, the figures for the “Pre-emergence action against ECHCG in %” value in the experiment with ECHCG [1] (20 g/ha) and in the experiment with ECHCG [1] (80 g/ha) were 80% and 100%, respectively. The “Pre-emergence action against ALOMY (herbicidal activity)” value with ALOMY [15] is reported as 90%. Besides, the “Post-emergence action against ECHCG in %” value with ECHCG [2] (dosage 5 g/ha) turned out to be 80%; in the experiment on ECHCG [2] (dosage 20 g/ha) it was 100%. Further, the “Pre-emergence action against SETVI in %” value with SETVI [3] is recorded as 100%. The “Post-emergence action against MATIN in %” value was determined as 80% with MATIN [16] (dosage 5 g/ha) and 90% in the experiment on MATIN [16] (dosage 20 g/ha). Besides, the “Pre-emergence action against DIGSA in %” value turned out to be 90% in the experiment with DIGSA [4] (dosage 20 g/ha) and 100% in the experiment on DIGSA [4] (dosage 80 g/ha). The “Pre-emergence action against AMARE in %” value with AMARE [5] (setting [21]) and in the experiment on AMARE [5] (setting [22]) was 100% in each case. Also, the “Pre-emergence action against VIOTR in %” value in the experiment with VIOTR [6] is given as 100%. For the same compound, the “Pre-emergence action against MATIN in %” value amounted to 90% with MATIN [7] (dosage 20 g/ha) and 100% with MATIN [7] (dosage 80 g/ha). Also, the “Post-emergence action against VERPE in %” value turned out to be 80% in the experiment with VERPE [17] (5 g/ha) and 90% in the experiment with VERPE [17] (20 g/ha). The “Pre-emergence action against VERPE in %” value with VERPE [18] is recorded as 90%. The “Post-emergence action against DIGSA” value with DIGSA [19] worked out at 90%. The “Pre-emergence action against ABUTH (herbicidal activity)” value in the experiment with ABUTH [8] is on record as 100%. Further, the “Pre-emergence action against ABUTH (herbicidal activity in percent)” value in the experiment with ABUTH [8] (dosage 20 g/ha, scored visually after 3 weeks vs untreated controls, 100% = plants have died, 0% = like control plants) turned out to be 100%. Moreover, the “Post-emergence action against ABUTH in %” value with ABUTH [9] was found to be 80%. The “Post-emergence action against PHBPU in %” value in the experiment on PHBPU [20] is 90%. For the same compound, the “Post-emergence action at 20 g/ha against AMARE in %” value in the experiment on AMARE [10] is on record as 90%. The “Pre-emergence action against AVEFA” value in the experiment with AVEFA (20 g/ha, scored visually after 3 weeks, 100% = plants have died, 0% = like control plants) came out at 80%. For the same compound, the “Pre-emergence action against AVEFA in %” value with AVEFA (80 g/ha, pre-emergence) is 100%. Moreover, the “Post-emergence action against SETVI in %” value in the experiment on SETVI [11] was 80%.

Source of the values: patent US12655116B2, “Substituted isophthalic acid diamides” (Bayer Aktiengesellschaft, priority 2020, dated 2026).
